In publication doi:10.1101/2022.12.11.519956v1 (biorxiv, 2022):

Target: T1, SauUSI (Staphylococcus aureus, UniProt A0A0H2XK17)
T1 sequence (A0A0H2XK17 1-953): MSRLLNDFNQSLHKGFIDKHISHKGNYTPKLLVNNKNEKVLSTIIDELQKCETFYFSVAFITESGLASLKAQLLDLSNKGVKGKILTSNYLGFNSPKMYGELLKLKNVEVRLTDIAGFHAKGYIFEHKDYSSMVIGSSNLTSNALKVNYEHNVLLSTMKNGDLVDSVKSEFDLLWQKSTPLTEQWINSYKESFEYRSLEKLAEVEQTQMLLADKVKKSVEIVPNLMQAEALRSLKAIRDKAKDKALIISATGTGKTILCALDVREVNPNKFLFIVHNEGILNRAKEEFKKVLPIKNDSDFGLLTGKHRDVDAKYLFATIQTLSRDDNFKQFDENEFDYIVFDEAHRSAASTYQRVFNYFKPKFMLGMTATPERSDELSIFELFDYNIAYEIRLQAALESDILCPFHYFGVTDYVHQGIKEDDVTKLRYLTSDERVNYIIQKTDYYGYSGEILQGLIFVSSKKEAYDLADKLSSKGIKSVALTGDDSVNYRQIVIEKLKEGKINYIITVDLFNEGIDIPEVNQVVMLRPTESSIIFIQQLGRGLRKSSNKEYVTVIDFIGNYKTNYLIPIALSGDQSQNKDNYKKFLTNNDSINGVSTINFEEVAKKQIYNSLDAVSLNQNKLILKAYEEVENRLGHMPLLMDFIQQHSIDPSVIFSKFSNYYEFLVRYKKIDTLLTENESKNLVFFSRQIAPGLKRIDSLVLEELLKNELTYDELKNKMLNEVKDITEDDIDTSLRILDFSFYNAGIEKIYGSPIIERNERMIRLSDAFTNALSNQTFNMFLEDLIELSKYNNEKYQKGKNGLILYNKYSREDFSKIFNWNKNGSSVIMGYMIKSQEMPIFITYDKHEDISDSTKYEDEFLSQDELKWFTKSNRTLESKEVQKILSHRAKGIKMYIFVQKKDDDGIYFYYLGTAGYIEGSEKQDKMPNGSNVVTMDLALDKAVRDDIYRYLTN
Experiment: biochemical

With Nc1ncnc2c1ncn2[C@@H]1O[C@H](COP(=O)(O)OP(=O)(O)OP(=O)(O)O)[C@@H](O)[C@H]1O [ATP] the IC50 was ~760 µM.
